Assay results: patent US9629921B2, “Smart pro-drugs of serine protease inhibitors” (Trustees of Tufts College, priority 2002, dated 2017)
Entries after “also recorded” stand apart in the source; their conditions may differ. Read-outs that look alike come from different tables or passages of the source.

Tests used:
Serum DPP IV [1] = target: T1, Serum DPP IV (Rattus norvegicus, UniProt P14740); assay: Serum DPP IV activity in rats as a function of time after dosing; type: in vivo
T1 construct: Serum DPP IV activity in rats as a function of time; from tissue; host or cells: rat serum
T1 sequence (P14740 37-767 limits assumed): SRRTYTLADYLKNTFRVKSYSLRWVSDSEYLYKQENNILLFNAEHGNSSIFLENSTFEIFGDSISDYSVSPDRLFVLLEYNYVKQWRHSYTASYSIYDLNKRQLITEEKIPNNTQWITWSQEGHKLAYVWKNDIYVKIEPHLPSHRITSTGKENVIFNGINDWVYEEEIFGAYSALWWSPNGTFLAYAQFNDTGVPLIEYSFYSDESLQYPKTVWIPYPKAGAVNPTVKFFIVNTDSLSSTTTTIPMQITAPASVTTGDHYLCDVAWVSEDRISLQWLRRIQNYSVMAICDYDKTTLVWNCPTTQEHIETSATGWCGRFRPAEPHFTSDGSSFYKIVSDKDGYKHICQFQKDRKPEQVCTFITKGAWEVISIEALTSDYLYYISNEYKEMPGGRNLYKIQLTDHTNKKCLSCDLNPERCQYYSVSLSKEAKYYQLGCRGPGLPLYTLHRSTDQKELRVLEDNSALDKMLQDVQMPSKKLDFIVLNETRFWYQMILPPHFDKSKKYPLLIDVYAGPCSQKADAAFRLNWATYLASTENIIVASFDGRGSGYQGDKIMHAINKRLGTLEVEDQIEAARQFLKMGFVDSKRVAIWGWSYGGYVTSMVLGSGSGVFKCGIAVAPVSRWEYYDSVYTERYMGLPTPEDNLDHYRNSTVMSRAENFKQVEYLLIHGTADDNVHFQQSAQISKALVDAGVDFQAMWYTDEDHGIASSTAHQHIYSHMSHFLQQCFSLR
Experimental: FIG. 8 Serum DPP IV activity in rats as a function of time following a single oral dose of 0.025 mg/kg. Each bar represents the average of four rats.
Each bar represents the average of four rats.

serum DPP IV [2] = target: serum DPP IV (Mus musculus, UniProt P28843); assay: In vivo inhibition of serum DPP IV in db/db mice after oral dose; details: for activity at 0.0025 mg/kg / activity at 0.01 mg/kg / activity at 0.025 mg/kg: mouse, iv, Diabetic-control = 100.00; for activity at 0.0025 mg/kg: read-out: In vivo inhibition of serum DPP IV, 0.0025 mg/kg; for activity at 0.01 mg/kg: read-out: In vivo inhibition of serum DPP IV, 0.01 mg/kg; for activity at 0.025 mg/kg: read-out: In vivo inhibition of serum DPP IV, 0.025 mg/kg
Sequence of serum DPP IV (P28843 37-760 limits assumed): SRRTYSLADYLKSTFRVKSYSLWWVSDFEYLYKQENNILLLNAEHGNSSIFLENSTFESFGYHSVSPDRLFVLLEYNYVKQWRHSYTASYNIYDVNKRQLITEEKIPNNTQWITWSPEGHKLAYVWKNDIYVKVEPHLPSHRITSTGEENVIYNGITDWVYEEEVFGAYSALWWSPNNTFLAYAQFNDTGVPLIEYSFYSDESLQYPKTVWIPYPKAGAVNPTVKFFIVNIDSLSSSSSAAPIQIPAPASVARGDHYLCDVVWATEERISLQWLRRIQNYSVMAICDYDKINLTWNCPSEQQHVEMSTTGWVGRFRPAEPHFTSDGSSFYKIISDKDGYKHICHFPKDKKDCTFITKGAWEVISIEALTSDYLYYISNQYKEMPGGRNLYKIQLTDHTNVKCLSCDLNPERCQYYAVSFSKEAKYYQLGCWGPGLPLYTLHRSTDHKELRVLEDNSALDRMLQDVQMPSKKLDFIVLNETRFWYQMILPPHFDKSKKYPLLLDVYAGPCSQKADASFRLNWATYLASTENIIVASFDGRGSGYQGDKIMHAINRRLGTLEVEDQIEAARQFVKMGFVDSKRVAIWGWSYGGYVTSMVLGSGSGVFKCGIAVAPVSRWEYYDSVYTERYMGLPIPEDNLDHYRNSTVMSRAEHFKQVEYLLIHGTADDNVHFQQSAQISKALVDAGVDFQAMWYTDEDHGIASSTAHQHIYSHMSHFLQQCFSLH

DB/DB mice [3] = assay: Fasting blood glucose in db/db (diabetic) mice; type: in vivo
Experimental: A dose of 1.7 mg corresponds to the 0.05 mg/kg dose.
Exendin is in phase 3 clinical trials for the treatment of type 2 diabetes (Amylin). Exendin-4 is widely regarded as the most powerful agent currently know for lowering fasting blood glucose levels and for improving glycemic control in diabetics.

DB/DB mice [4] = test system: DB/DB mice
Zucker rats = assay: Toxicity (mortality) after oral dose in rats; type: in vivo; details: rats, dose equivalent to 0.35 mg/kg of Val-boroPro (FIG. 6)
DPP IV = DPP IV (Homo sapiens, UniProt P27487); assay: In vitro DPP IV enzyme inhibition assay; inhibitors incubated at pH 2 or pH 8, then added to enzyme assay solution at pH 8.0; type: biochemical
Sequence of DPP IV (P27487 whole entry, species assumed): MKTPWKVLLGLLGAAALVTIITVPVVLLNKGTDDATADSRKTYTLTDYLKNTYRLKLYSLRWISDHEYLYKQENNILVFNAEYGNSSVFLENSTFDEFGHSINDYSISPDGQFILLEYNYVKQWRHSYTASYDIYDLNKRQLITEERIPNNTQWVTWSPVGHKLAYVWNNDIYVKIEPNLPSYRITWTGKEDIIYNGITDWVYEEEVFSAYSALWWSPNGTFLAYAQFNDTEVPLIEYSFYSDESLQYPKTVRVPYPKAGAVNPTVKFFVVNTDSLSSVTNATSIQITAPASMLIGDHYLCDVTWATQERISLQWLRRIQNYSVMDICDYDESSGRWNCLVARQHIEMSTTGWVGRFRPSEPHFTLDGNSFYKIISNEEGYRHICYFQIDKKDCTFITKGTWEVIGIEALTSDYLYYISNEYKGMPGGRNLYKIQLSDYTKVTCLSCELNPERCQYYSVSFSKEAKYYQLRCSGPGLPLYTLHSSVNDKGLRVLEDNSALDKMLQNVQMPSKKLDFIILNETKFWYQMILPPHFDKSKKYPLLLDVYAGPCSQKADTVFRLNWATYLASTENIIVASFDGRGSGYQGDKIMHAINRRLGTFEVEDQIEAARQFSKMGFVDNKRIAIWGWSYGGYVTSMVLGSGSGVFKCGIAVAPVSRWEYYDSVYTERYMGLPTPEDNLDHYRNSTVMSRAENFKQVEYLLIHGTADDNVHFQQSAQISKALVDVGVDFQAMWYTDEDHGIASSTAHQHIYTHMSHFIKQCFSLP
Experimental: Inhibitors were incubated overnight in pH 2 or pH 8 solutions and then added directly to an enzyme assay solution at pH 8.0.
It is important to note that the x-axis in FIG. 3 refers to the concentration of the SPI, not the concentration of the released Xaa-boroPro.

male Sprague-Dawley rats [5] = details: rat, in vivo
male Sprague-Dawley rats [6] = assay: Example 10: clinical signs and mortality after single oral administration in male rats; details: 2.5 mg/kg ALA-PRO boronic dose equivalents;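 further: test articles given by mouth, formulated in deionized Type I water as vehicle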
[7] = pH 2, ten minutes, read-out: IC50 Values at Ten Minutes pH 2
[8] = pH 8, ten minutes, read-out: IC50 Values at Ten Minutes pH 8

## CC(C)C(NC(=O)C1CCCN1C(=O)C(N)C1CCCCC1)C(=O)N1CCCC1B(O)O (stereo not drawn) [ChgProValboroPro, Cyclohexylglycine-Proline-Valine-boroPro line]
Serum DPP IV [1]; rats, each bar average of four animals (FIG. 62)
  Potency, duration and safety in vivo in rats compared with ValboroPro: more potent, longer acting, and safer than ValboroPro
Serum DPP IV [1]; rats, single oral dose of 0.025 mg/kg, average of four rats (FIG. 8), 0.025 mg/kg
  Inhibition of serum DPP IV activity compared with Val-boroPro: outperforms Val-boroPro in inhibiting serum DPP IV activity; also recorded: outperforms Val-boroPro in inhibition serum DPP IV enzyme activity
Serum DPP IV [1]; three different doses given orally (FIG. 6, 7)
  Oral activity: serum DPP IV activity in rats: very orally active; also recorded: orally active
Serum DPP IV [2]; db/db mice (Table 3)
  Oral activity in mice compared with Val-boroPro: outperforms Val-boroPro in mice
Serum DPP IV [2]; 1 hr Post Rx-Glucose
  activity at 0.0025 mg/kg: 84.5%
  activity at 0.01 mg/kg: 48.9%
  activity at 0.025 mg/kg: 34.7%
Serum DPP IV [2]; 4 hrs Post Rx-Glucose
  activity at 0.0025 mg/kg: 81.8%
  activity at 0.01 mg/kg: 40.7%
  activity at 0.025 mg/kg: 24.4%
DB/DB mice [3]; db/db mice, dose of 1.7 mg corresponds to the 0.05 mg/kg dose (FIG. 65)
  Lowering fasting blood glucose compared with GLP-1: outperforms GLP-1 in lowering fasting blood glucose
DB/DB mice [3]; diabetic (db/db) mice (FIG. 66, 67)
  Lowering fasting blood glucose compared with exendin-4: as effective as exendin-4 in lowering fasting blood glucose; also recorded: does about what the highest dose of exendin-4 could be expected to do
DB/DB mice [4]; DB/DB mice, OGTT four hours post oral dose, dose equivalent to 0.05 mg/kg of Val-boroPro (FIG. 9)
  Glucose excursion following an oral glucose challenge: markedly outperforms Val-boroPro in lowering the glucose excursion
DB/DB mice [4]; db/db mice, single oral dose of 0.05 mg/kg three hours before oral glucose challenge (FIG. 63)
  Oral glucose tolerance test performance: performs better than ValboroPro
Zucker rats
  Mortality (rats killed): one of four
DPP IV; pH 2, read-out: Tetrapeptide Prodrugs (IC50) pH 2
  IC50: 65 nM
DPP IV; [7]
  IC50: 70 nM
DPP IV; pH 8, read-out: Tetrapeptide Prodrugs (IC50) pH 8
  IC50: 72 nM
DPP IV; [8]
  IC50: 70 nM

## exendin-4: in phase 3 clinical trials for the treatment of type 2 diabetes (Amylin); powerful agent for lowering fasting blood glucose [reference compound]
DB/DB mice [3]; FIG. 67
  Effect in lowering fasting blood glucose as a function of hyperglycemia: The greater the hyperglycemia the greater is the effect

## CNCC(=O)N1CC=CC1C(=O)NC(C)C(=O)N1CCCC1B(O)O (stereo not drawn) [SarDhpAlaboroPro, N-Me-Gly-3,4 dehydroproline-ALA-PRO Boronic Acid]
Male Sprague-Dawley rats [5]
  Approximate Time of Sacrifice or Time Animal was Found Dead (hr post-dose): ~7 h (found dead)
Male Sprague-Dawley rats [6]
  Approximate Time of Sacrifice or Time Animal was Found Dead (hr post-dose): ~4 h (sacrificed)
DPP IV; [7]
  IC50: 39 nM
DPP IV; [8]
  IC50: 34 nM
